According to the supplement of paper PMC10331698:
± gives the standard deviation of the averaged measurements.

Key:
Assay in all cases: level (log10 ratio to DMSO vehicle control); higher = higher biomarker level / cell amount than vehicle control
[1] = compound: O=S(=O)(O)C(F)(F)C(F)(F)C(F)(F)C(F)(F)C(F)(F)C(F)(F)C(F)(F)F [Perfluoroheptanesulfonic acid] (in DMSO)
Experimental: (§1)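 BioMAP Diversity Plus panel of 12 human primary cell co-culture systems (3C, 4H, LPS, SAg, BT, BF4T, BE3C, CASM3C, HDF3CGF, KF3CT, MyoF, Mphg). Compounds were added 1 h before stimulation and left for 24 h (MyoF 48 h; BT 72 h for soluble read-outs or 6 d for IgG). Biomarkers were read by ELISA, cytotoxicity by SRB, PBMC viability and proliferation by Alamar Blue. Each well value was divided by the mean of 8 DMSO control wells on the same plate and log10 transformed; duplicate blinded samples were tested at 4 concentrations.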

[2] = compound: OCCC(F)(F)C(F)(F)C(F)(F)C(F)(F)F [4:2 Fluorotelomer alcohol] (in DMSO)
Experimental: as §1

[3] = compound: O=C(O)C(F)(F)OC(F)(F)C(F)(F)OC(F)(F)C(F)(F)OC(F)(F)C(F)(F)C(F)(F)C(F)(F)F [Perfluoro-3,6,9-trioxatridecanoic acid] (in DMSO); conditions: 6700 nM
Experimental: as §1

[4] = compound: O=S(=O)(O)C(F)(F)C(F)(F)OC(F)(F)C(F)(F)F [Perfluoro(2-ethoxyethane)sulfonic acid] (in DMSO)
Experimental: as §1

[5] = compound: CO[Si](C)(CCC(F)(F)C(F)(F)C(F)(F)C(F)(F)C(F)(F)C(F)(F)F)OC [Dimethoxymethyl((perfluorohexyl)ethyl)silane] (in DMSO)
Experimental: as §1

[6] = compound: O=C(O)C(F)(OC(F)(F)C(F)(F)C(F)(F)F)C(F)(F)F [Ammonium perfluoro-2-methyl-3-oxahexanoate] (in Water)
Experimental: as §1

[7] = compound: CCOC(=O)CC(=O)C(F)(F)C(F)(F)F [Ethyl pentafluoropropionyl acetate] (in DMSO)
Experimental: as §1

Row | Test System | level (log10) ([1]; 1500 nM) | level (log10) ([1]; 4400 nM) | level (log10) ([1]; 13000 nM) | level (log10) ([1]; 40000 nM) | level (log10) ([2]; 6700 nM) | level (log10) ([2]; 20000 nM) | level (log10) ([2]; 60000 nM) | level (log10) [3] | level (log10) ([4]; 6700 nM) | level (log10) ([4]; 20000 nM) | level (log10) ([4]; 60000 nM) | level (log10) ([5]; 6700 nM) | level (log10) ([5]; 20000 nM) | level (log10) ([6]; 6700 nM) | level (log10) ([6]; 20000 nM) | level (log10) ([6]; 60000 nM) | level (log10) ([7]; 6700 nM) | level (log10) ([7]; 20000 nM) | level (log10) ([7]; 60000 nM)
1 | SAg:CD69 | -0.0145 ± 0.029 | -0.0175 ± 0.012 | -0.004 ± 0.03 | 0.0045 ± 0.013 | -0.0265 ± 0.00071 | -0.0115 ± 0.011 | -0.0005 ± 0.0092 | -0.0065 ± 0.0021 | 0.0055 ± 0.032 | 0.0065 ± 0.016 | 0.015 ± 0.021 | -0.032 ± 0.033 | -0.0115 ± 0.011 | -0.046 ± 0.0071 | -0.0265 ± 0.019 | -0.0205 ± 0.005 | 0.0075 ± 0.026 | -0.0015 ± 0.029 | 0.019 ± 0.05
2 | SAg:CCL2/MCP-1 | -0.001 ± 0.031 | -0.0345 ± 0.044 | -0.024 ± 0.028 | 0.031 ± 0.0071 | -0.009 ± 0.0014 | 0.006 ± 0.025 | 0.031 ± 0.089 | -0.0125 ± 0.018 | 0.0065 ± 0.0078 | 0.0055 ± 0.011 | 0.0145 ± 0.019 | -0.0215 ± 0.00071 | -0.0145 ± 0.0064 | -0.0245 ± 0.04 | 0.004 ± 0.017 | 0.0305 ± 0.059 | -0.0005 ± 0.011 | -0.0225 ± 0.0078 | 0.011 ± 0.0085
3 | BE3C:HLA-DR | 0.01 ± 0.014 | -0.013 ± 0.016 | -0.01 ± 0.021 | -0.028 ± 0.033 | -0.0265 ± 0.052 | -0.0075 ± 0.03 | 0.002 ± 0.0099 | -0.8695 ± 0.0078 | -0.0085 ± 0.033 | -0.012 ± 0.014 | -0.0335 ± 0.0092 | -0.0045 ± 0.0021 | -0.0235 ± 0.012 | -0.022 ± 0.013 | -0.0015 ± 0.018 | -0.0265 ± 0.0021 | 0.014 ± 0.023 | -0.006 ± 0.0014 | -0.0005 ± 0.005
4 | SAg:CD38 | -0.003 ± 0.025 | -0.019 ± 0.017 | -0.008 ± 0.027 | -0.011 ± 0.0042 | 0.0085 ± 0.11 | 0.0295 ± 0.1 | 0.0235 ± 0.077 | 0.0175 ± 0.026 | -0.0005 ± 0.03 | -0.004 ± 0.023 | -0.0125 ± 0.016 | 0.0075 ± 0.018 | 0.014 ± 0.0028 | 0.003 ± 0.011 | 0.008 ± 0.0085 | -0.0055 ± 0.019 | -0.0055 ± 0.049 | 0.019 ± 0.045 | -0.0175 ± 0.0021
5 | SAg:CXCL9/MIG | -0.0015 ± 0.0092 | -0.002 ± 0.018 | -0.004 ± 0.0085 | 0.008 | -0.0125 ± 0.0092 | 0.003 ± 0.0057 | 0.0105 ± 0.035 | -0.001 ± 0.0014 | 0.007 | -0.0025 ± 0.0078 | 0.0035 ± 0.005 | 0.0075 ± 0.0021 | -0.0035 ± 0.0035 | -0.006 ± 0.0085 | 0.001 ± 0.014 | 0.001 ± 0.028 | -0.001 ± 0.011 | -0.015 ± 0.0099 | 0.0065 ± 0.0021
6 | LPS:CD40 | 0.035 ± 0.075 | 0.029 ± 0.096 | 0.0625 ± 0.1 | 0.001 ± 0.14 | -0.008 ± 0.016 | -0.041 ± 0.014 | -0.032 | -0.015 ± 0.024 | 0.0515 ± 0.016 | 0.022 ± 0.0028 | 0.047 ± 0.016 | -0.0085 ± 0.029 | -0.009 ± 0.025 | -0.014 ± 0.018 | -0.0145 ± 0.016 | -0.045 ± 0.03 | 0.015 ± 0.0014 | -0.0245 ± 0.015 | -0.0335 ± 0.0064
7 | SAg:CD40 | -0.0375 ± 0.023 | -0.0165 ± 0.012 | -0.009 ± 0.016 | -0.049 ± 0.014 | -0.028 ± 0.059 | -0.036 ± 0.037 | -0.006 ± 0.068 | -0.0155 ± 0.043 | 0.0065 ± 0.0035 | 0.024 ± 0.0085 | 0.017 ± 0.0085 | -0.0095 ± 0.0078 | -0.022 ± 0.0042 | -0.019 ± 0.013 | -0.017 ± 0.0014 | -0.0555 ± 0.077 | 0.005 ± 0.0028 | -0.0205 ± 0.0021 | -0.0275 ± 0.0035
